Data set [1] deals with erythrocyte. The experiment in a line: Hemolysis test (ASTM F756). Type of data set: cell-based.
The subject of data set [2] is macrophage culture (RAW 264.7). The data set can be described thus: In vitro stealth test: reactive oxygen species (DCFDA to DCF) in macrophage culture, flow cytometer. In kind it is cell-based. Particulars: RAW 264.7, 1 μm PMA, 24-hour activation (positive control). Background: A flow cytometer gives signals particle by particle.

On to `CC[C@@]1(O)C(=O)OCc2c1cc1n(c2=O)Cc2cc3ccccc3nc2-1` [Camptothecin], for which, in data set [1], the Hemolytic grade result is “slight hemolysis” and the “Hemolytic index (%)” value was determined as 5.84%.

Take `CCCCCCCCCCCCCC(=O)O[C@@H]1[C@@H](C)[C@@]2(O)[C@@H](C=C(CO)C[C@]3(O)C(=O)C(C)=C[C@@H]23)[C@@H]2C(C)(C)[C@]12OC(C)=O` [PMA]: the “mean fluorescent intensity of DCF” value in data set [2] is 20.13.

These data come from patent US8940333B2, “Amphiphilic block copolymers and nanoparticles comprising the same” (priority 2005, dated 2015).
